Five compounds from ChEMBL document CHEMBL4118085, “Plasma Kallikrein Inhibitors for the Treatment of Retinal Vascular Permeability Associated with Diabetic Retinopathy and Diabetic Macular Edema” (ACS Med Chem Lett, 2017) can be followed below.

As usually defined, the IC50 is the concentration at which inhibition is half-maximal. Low values mean higher potency, high ones lower potency.

The target of this assay is Plasma kallikrein (Homo sapiens, UniProt P03952). The assay can be described thus: Inhibition of human plasma kallikrein using H-Pro-Phe-Arg-AMC as substrate after 1 hr by fluorescence assay.
Chain of Plasma kallikrein (P03952 20-390 limits assumed): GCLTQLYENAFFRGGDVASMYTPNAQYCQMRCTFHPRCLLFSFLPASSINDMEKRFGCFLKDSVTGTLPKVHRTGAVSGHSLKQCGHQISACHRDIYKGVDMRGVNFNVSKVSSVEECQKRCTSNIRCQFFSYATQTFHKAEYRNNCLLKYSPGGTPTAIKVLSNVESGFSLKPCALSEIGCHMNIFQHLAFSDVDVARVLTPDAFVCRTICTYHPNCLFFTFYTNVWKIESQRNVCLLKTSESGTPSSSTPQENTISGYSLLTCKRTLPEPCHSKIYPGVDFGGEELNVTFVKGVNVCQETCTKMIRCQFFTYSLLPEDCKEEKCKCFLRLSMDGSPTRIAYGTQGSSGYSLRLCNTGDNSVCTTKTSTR
Chain of Plasma kallikrein (P03952 391-638 limits assumed): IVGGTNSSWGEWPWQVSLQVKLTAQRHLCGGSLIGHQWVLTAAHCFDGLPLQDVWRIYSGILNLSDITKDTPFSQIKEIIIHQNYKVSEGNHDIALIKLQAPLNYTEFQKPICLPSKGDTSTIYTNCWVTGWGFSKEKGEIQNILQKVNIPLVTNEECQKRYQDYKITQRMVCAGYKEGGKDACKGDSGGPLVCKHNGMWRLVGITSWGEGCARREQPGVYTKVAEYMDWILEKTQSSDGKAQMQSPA
Take `C[C@H]1CCN(c2ccc(Cn3cc(C(=O)N[C@@H]4CCc5nc(N)ccc54)cn3)cn2)C1`: 19 nM corresponded to half-maximal inhibition (IC50).

For `Cc1cnn(Cc2ccc(Cn3nc(C(=O)N[C@@H]4CCc5c4ccnc5N)cc3C(F)(F)F)cc2)c1`, the 50% inhibitory concentration (IC50) stood at 1 nM.

`Cc1ccc2cc(Cn3cc(C(=O)N[C@H]4CCc5nc(N)ccc54)nn3)ccc2n1` showed an IC50 of 1900 nM.

`Nc1ccc2c(n1)CCC2NC(=O)c1cnn(Cc2ccc(Cn3ccccc3=O)cc2)c1` (stereo not given) came in with an IC50 of 9 nM.

For the compound `Cc1cc(N)nc2c1C(NC(=O)c1cnn(Cc3ccc(Cn4ccccc4=O)cc3)c1)CC2` (stereo not given), the midpoint of inhibition, the IC50, lay at 4 nM.
